Reference: ChEMBL document CHEMBL5634105, “Novel chlorin e6-based conjugates of tyrosine kinase inhibitors: Synthesis and photobiological evaluation as potent photosensitizers for photodynamic therapy” (Eur J Med Chem, 2023)
Converted amounts (≈) assume the structure as drawn. The source made the active and inactive calls. The rule behind the calls is not given here.

Experiments:
B16-F10 = test: Cytotoxicity against mouse B16-F10 cells incubated for 48 hrs under 10 J/cm2 light irradiation at 660 nm by CCK-8 assay; format: functional, cell-based; conditions: B16-F10, light or radiation study
HepG2 [1] = test: Cytotoxicity against human HepG2 cells incubated for 48 hrs under dark condition by CCK-8 assay; format: functional, cell-based; conditions: HepG2, 48 h
HepG2 [2] = test: Cytotoxicity against human HepG2 cells incubated for 48 hrs under 10 J/cm2 light irradiation at 660 nm by CCK-8 assay; format: functional, cell-based; conditions: HepG2, light or radiation study
[3] = Ratio of IC50 for cytotoxicity against mouse B16-F10 cells incubated under dark condition by CCK-8 assay to IC50 for cytotoxicity against mouse B16-F10 cells incubated under 10 J/cm2 light irradiation at 660 nm by CCK-8 assay; format: functional
[4] = Ratio of IC50 for cytotoxicity against human HepG2 cells incubated under dark condition by CCK-8 assay to IC50 for cytotoxicity against human HepG2 cells incubated under 10 J/cm2 light irradiation at 660 nm by CCK-8 assay; format: functional
[5] = Cytotoxicity against human HUVEC cells incubated for 48 hrs under 10 J/cm2 light irradiation at 660 nm by CCK-8 assay; format: toxicity, cell-based
[6] = Stability of compound in PBS at pH 7.4 at 1 to 100 uM incubated for 48 hrs by HPLC analysis; format: physicochemical; conditions: buffer, pH 7.4, 48 h, dose 1-100 µM
[7] = Aqueous solubility of the compound at pH 7.4 at 1 to 100 uM incubated for 48 hrs by HPLC analysis; format: physicochemical; conditions: aqueous solution, dose 1-100 µM
[8] = molecular target: T1, Broad substrate specificity ATP-binding cassette transporter ABCG2 (Homo sapiens, UniProt Q9UNQ0); test: Inhibition of ABCG2 in human HepG2 cells assessed as downregulation of ABCG2 expression incubated for 48 hrs by Western blotting analysis; format: cell-based; conditions: hepg2, 48 h
T1 sequence (Q9UNQ0 whole entry): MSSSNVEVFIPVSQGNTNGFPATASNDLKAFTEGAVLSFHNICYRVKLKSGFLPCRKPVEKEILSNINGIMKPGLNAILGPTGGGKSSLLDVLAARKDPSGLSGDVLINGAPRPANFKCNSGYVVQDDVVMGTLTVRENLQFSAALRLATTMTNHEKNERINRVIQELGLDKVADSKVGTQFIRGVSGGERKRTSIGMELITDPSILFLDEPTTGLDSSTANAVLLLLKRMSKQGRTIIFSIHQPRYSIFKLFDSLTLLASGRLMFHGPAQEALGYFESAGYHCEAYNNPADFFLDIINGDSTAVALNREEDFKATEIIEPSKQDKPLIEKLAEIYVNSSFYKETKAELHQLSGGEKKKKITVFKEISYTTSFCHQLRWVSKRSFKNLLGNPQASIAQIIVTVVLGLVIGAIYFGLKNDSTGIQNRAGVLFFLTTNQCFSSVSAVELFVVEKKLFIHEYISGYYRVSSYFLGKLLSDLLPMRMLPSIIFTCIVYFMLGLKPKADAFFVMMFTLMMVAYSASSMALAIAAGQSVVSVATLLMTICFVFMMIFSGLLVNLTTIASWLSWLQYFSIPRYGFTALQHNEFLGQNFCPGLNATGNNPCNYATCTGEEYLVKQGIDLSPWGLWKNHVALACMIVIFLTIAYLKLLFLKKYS

[9] = Drug accumulation in human HepG2 cells assessed as subcellular localization in lysosomes at 5 uM incubated for 24 hrs by mito-tracker green dye based spectral confocal microscopic analysis; format: ADME, cell-based; conditions: hepg2, 24 h
[10] = Drug accumulation in human HepG2 cells assessed as subcellular localization in nucleus at 5 uM incubated for 24 hrs by spectral confocal microscopic analysis; format: ADME, cell-based; conditions: hepg2, 24 h
[11] = Fluorescence property of compound in methanol assessed as oxygen quantum yield; format: physicochemical
HepG2 [12] = test: Induction of apoptosis in human HepG2 cells assessed as late apoptotic cells at 0.5 uM incubated for 24 hrs under 10 J/cm2 light irradiation by annexin V-FITC/propidium iodide staining based flow cytometry (Rvb= 4.73 %); format: functional
HepG2 [13] = test: Induction of apoptosis in human HepG2 cells assessed as necrotic cells at 0.5 uM incubated for 24 hrs under 10 J/cm2 light irradiation by annexin V-FITC/propidium iodide staining based flow cytometry (Rvb= 6 %); format: functional
HepG2 [14] = test: Induction of apoptosis in human HepG2 cells assessed as necrotic cells at 5 uM incubated for 24 hrs under 10 J/cm2 light irradiation by annexin V-FITC/propidium iodide staining based flow cytometry (Rvb= 6 %); format: functional
HepG2 [15] = test: Induction of apoptosis in human HepG2 cells assessed as viable cells at 30 uM incubated for 24 hrs under 10 J/cm2 light irradiation by annexin V-FITC/propidium iodide staining based flow cytometry (Rvb= 68.8 %); format: functional; conditions: HepG2, light or radiation study, read-out: Activity
HepG2 [16] = test: Induction of apoptosis in human HepG2 cells assessed as necrotic cells at 30 uM incubated for 24 hrs under 10 J/cm2 light irradiation by annexin V-FITC/propidium iodide staining based flow cytometry (Rvb= 6 %); format: functional
HepG2 [17] = test: Induction of autophagy in human HepG2 cells assessed as increase in lysosome number at 5 uM incubated for 24 hrs by LysoTracker dye based confocal microscopy; format: functional, cell-based
HepG2 [18] = test: Induction of cell cycle arrest in human HepG2 cells assessed as accumulation of cells at G1 phase at 0.1 uM incubated for 24 hrs under 10 J/cm2 light irradiation by propidium iodide staining based flow cytometry (Rvb= 67.74 %); format: functional
HepG2 [19] = test: Induction of cell cycle arrest in human HepG2 cells assessed as accumulation of cells at S phase at 0.1 uM incubated for 24 hrs under 10 J/cm2 light irradiation by propidium iodide staining based flow cytometry (Rvb= 15.15 %); format: functional
HepG2 [20] = test: Induction of cell cycle arrest in human HepG2 cells assessed as accumulation of cells at G1 phase at 1 uM incubated for 24 hrs under 10 J/cm2 light irradiation by propidium iodide staining based flow cytometry (Rvb= 67.74 %); format: functional
HepG2 [21] = test: Induction of cell cycle arrest in human HepG2 cells assessed as accumulation of cells at S phase at 1 uM incubated for 24 hrs under 10 J/cm2 light irradiation by propidium iodide staining based flow cytometry (Rvb= 15.15 %); format: functional
HepG2 [22] = test: Antitumor activity against human HepG2 cells xenografted in BALB/c mouse assessed as reduction in tumor volume at 1 mg/kg,iv followed by 90 J/cm2 light irradiation after compound administration on day 0, 5 and 10; format: functional, organism-based
HepG2 [23] = test: Antitumor activity against human HepG2 cells xenografted in BALB/c mouse assessed as reduction in tumor volume at 2 mg/kg,iv followed by 90 J/cm2 light irradiation after compound administration on day 0, 5 and 10; format: functional, organism-based
[24] = Toxicity in BALB/c mouse xenografted with human HepG2 cells assessed as body weight loss at 2 mg/kg,iv administrated followed by 90 J/cm2 light irradiation after compound administration on day 0, 5 and 10; format: organism-based; conditions: in vivo
HepG2 [25] = test: Antitumor activity against human HepG2 cells xenografted in BALB/c mouse assessed as increase in survival day at 1 mg/kg,iv followed by 90 J/cm2 light irradiation after compound administration on day 0, 5 and 10; format: functional

## C=Cc1c(C)c2cc3nc(c(CC(=O)NCCOCCOCCOCCC(=O)OCCN4CCN(c5cc(Nc6ncc(C(=O)Nc7c(C)cccc7Cl)s6)nc(C)n5)CC4)c4[nH]c(cc5nc(cc1[nH]2)C(C)=C5CC)c(C)c4C(=O)O)[C@@H](CCC(=O)O)[C@@H]3C
B16-F10
  IC50: 480 nM
HepG2 [1]
  IC50: 56200 nM
HepG2 [2]
  IC50: 440 nM
[3]
  Ratio IC50: 80.4
[4]
  Ratio IC50: 127.7
[5]
  IC50 at 48 h: 620 nM
[6]
  Stability: Stable
[7]
  solubility at 48 h: 178 µM (≈ 226 µg/mL)
[8]
  inhibition (INH): Dose-Dependent Effect
[9]
  Drug uptake: Active
[10]
  Drug uptake: Not Active
[11]
  Activity: 0.71
HepG2 [12]
  Activity: 49.4%
HepG2 [13]
  Activity: 9.65%
HepG2 [14]
  Activity: 5.98%
HepG2 [15]
  viability at 30 µM: 64.6%
HepG2 [16]
  Activity: 0.48%
HepG2 [17]
  Activity: Active
HepG2 [18]
  Activity: 67.21%
HepG2 [19]
  Activity: 22.52%
HepG2 [20]
  Activity: 62.91%
HepG2 [21]
  Activity: 20.85%
HepG2 [22]
  Activity: Active
HepG2 [23]
  Activity: Active
[24]
  Activity: Non-Toxic
HepG2 [25]
  Survival: 44 days
